Experimental data published in patent US20220265629A1, “TREATMENT OF SYSTOLIC DYSFUNCTION AND HEART FAILURE WITH REDUCED EJECTION FRACTION WITH THE COMPOUND (R)-4-(1-((3-(DIFLUOROMETHYL)-1-METHYL-1H-PYRAZOL-4-YL)SULFONYL)-1-FLUOROETHYL)-N-(ISOXAZOL-3-YL)PIPERIDINE-1-CARBOXAMIDE” (MyoKardia, Inc., priority 2019, published 2022).
Values after ≈ are worked out from the molar mass of the structure shown. Read-outs that look alike come from different tables or passages of the source. Marks after values point to notes of the source that are not given here.

What was measured:
healthy volunteers = test: Food effect cross-over study, healthy volunteers: safety; format: in vivo, human
Experimental: ECG was performed as described in Example 1. The following intervals were measured: RR, PR, QRS, and QT. Heart rate (HR) was calculated as 60/(RR×1000) (with RR expressed in msec) and rounded to the nearest integer. Each individual ECG QT value was corrected for HR. The measured QT data was corrected for HR using the Fridericia method (QTcF) as per the following formulae/method (with QT, RR and QTc expressed in ms): […]
The Investigator or designee monitored the continuous ECG telemetry data and correlated the finding(s) with any other clinical findings, study participant's medical history, study participant's clinical status and laboratory data to determine the clinical importance of the finding.
Serum troponin-I concentrations were determined as described in Example 1. Abnormal and/or rising troponin values (as per Investigator's judgment and taking into account potential Baseline troponin elevation) led to the subject being clinically evaluated for possible myocardial ischemia. […] The entire clinical context would be evaluated (e.g., signs, symptoms, new ECG changes, new troponin, and CK-MB abnormalities) and correlated with any other relevant clinical findings, the subject's medical history, and laboratory data to determine the clinical significance of the findings.

[1] = Physicochemical and biopharmaceutical properties of the drug substance (PBPK model input); details: for blood plasma ratio: blood and plasma
From the text: A PBPK mechanistic absorption model was developed by integrating (1) physicochemical and biopharmaceutical properties obtained from in vitro experimental measurements or in silico estimates based on chemical structure using ADMET Predictor (version 7.2) in GastroPlus (Version 9.6); (2) formulation properties of the drug product such as drug substance particle size distribution, formulation type, and rate of release or dissolution; (3) compartmental model kinetic parameters such as systemic clearance, volume of distribution, and inter-compartmental rate constants; and (4) gut physiology parameters such as gastro-intestinal (GI) transit time, pH, absorptive surface area, compartment dimensions and fluid content. The preexisting physiological parameters in GastroPlus (Version 9.6) for American healthy volunteers and beagle dogs under fasted conditions were used without modification.

cardiac actin and myosin = cardiac actin and myosin (Homo sapiens, UniProt P12883); test: Crossbridge formation (phosphate release) and detachment (ADP release) between cardiac actin and myosin; format: biochemical
From the text: or a pharmaceutically acceptable salt thereof. […] Crossbridge formation and detachment are critical steps in each cycle of cardiac contraction. Compound I reversibly binds to myosin, increasing the number of myosin/actin crossbridges available to participate in the strongly bound state of the chemomechanical cycle and thereby increasing contraction.

[2] = tested on: patients with stable HFrEF; test: HFrEF study Part 2 (MAD Cohorts A-D): TTE pharmacodynamics by plasma concentration group; format: in vivo, human; details: for A-wave duration, mean change from baseline (placebo-corrected) / A-wave peak, mean change from baseline (placebo-corrected) / DBP (supine), mean change from baseline (placebo-corrected) / E-wave peak, mean change from baseline (placebo-corrected) / E/A ratio, mean change from baseline (placebo-corrected) / E/e′ (lateral), mean change from baseline (placebo-corrected) / Heart rate (supine), mean change from baseline (placebo-corrected) / IVRT, mean change from baseline (placebo-corrected) / LVEDD, mean change from baseline (placebo-corrected) / LVEDVi, mean change from baseline (placebo-corrected) / LVEF, mean change from baseline (placebo-corrected) / LVESD, mean change from baseline (placebo-corrected) / LVESVi, mean change from baseline (placebo-corrected) / LVFS, mean change from baseline (placebo-corrected) / LVGCS, mean change from baseline (placebo-corrected) / LVGLS, mean change from baseline (placebo-corrected) / LVSV, mean change from baseline (placebo-corrected) / SBP (supine), mean change from baseline (placebo-corrected) / SET, mean change from baseline (placebo-corrected) / Tei index, mean change from baseline (placebo-corrected) / e′ (lateral), mean change from baseline (placebo-corrected) / s′ (lateral), mean change from baseline (placebo-corrected): LS mean difference vs placebo
Experimental: PD assessment was done by transthoracic echocardiography as described in Example 1 above. TTE evaluations of LVSV (derived from LVOT-VTI), LVEF, LVFS, SET, and other parameters were PD assessments at predetermined time points. The patients were on bed rest for 10 minutes before the TTEs were obtained. In Part 2 (MAD), TTEs were usually obtained before the morning close and/or at 7 hours postclose (i.e., close to the anticipated peak effect based on the PK profile from the healthy volunteer studies).
The pharmacodynamic effects of Compound I on echocardiographic markers of cardiac structure and function were analyzed by Compound I plasma concentration groups: <2000 ng/mL (lower concentration group), 2000-3500 ng/mL (medium concentration group) and ≥3500 ng/mL (higher concentration group) (Table 16) and with PK-PD scatterplots (FIGS. 9A-9C). The medium concentration group corresponds to steady-state plasma concentrations achieved with 50 mg BID (Table 17). A total of 526 echocardiograms were performed from which the PK-PD analysis was derived.

[3] = crystalline free-base drug substance
[4] = MAD cohorts, plasma concentration group 2000-<3500 ng/mL (n = 26)
[5] = MAD cohorts, plasma concentration group <2000 ng/mL (n = 30)
[6] = MAD cohorts, plasma concentration group ≥3500 ng/mL (n = 13)
[7] = higher concentration group (≥3500 ng/mL)
[8] = medium concentration group (2000-3500 ng/mL)

Chain of cardiac actin and myosin (P12883 whole entry): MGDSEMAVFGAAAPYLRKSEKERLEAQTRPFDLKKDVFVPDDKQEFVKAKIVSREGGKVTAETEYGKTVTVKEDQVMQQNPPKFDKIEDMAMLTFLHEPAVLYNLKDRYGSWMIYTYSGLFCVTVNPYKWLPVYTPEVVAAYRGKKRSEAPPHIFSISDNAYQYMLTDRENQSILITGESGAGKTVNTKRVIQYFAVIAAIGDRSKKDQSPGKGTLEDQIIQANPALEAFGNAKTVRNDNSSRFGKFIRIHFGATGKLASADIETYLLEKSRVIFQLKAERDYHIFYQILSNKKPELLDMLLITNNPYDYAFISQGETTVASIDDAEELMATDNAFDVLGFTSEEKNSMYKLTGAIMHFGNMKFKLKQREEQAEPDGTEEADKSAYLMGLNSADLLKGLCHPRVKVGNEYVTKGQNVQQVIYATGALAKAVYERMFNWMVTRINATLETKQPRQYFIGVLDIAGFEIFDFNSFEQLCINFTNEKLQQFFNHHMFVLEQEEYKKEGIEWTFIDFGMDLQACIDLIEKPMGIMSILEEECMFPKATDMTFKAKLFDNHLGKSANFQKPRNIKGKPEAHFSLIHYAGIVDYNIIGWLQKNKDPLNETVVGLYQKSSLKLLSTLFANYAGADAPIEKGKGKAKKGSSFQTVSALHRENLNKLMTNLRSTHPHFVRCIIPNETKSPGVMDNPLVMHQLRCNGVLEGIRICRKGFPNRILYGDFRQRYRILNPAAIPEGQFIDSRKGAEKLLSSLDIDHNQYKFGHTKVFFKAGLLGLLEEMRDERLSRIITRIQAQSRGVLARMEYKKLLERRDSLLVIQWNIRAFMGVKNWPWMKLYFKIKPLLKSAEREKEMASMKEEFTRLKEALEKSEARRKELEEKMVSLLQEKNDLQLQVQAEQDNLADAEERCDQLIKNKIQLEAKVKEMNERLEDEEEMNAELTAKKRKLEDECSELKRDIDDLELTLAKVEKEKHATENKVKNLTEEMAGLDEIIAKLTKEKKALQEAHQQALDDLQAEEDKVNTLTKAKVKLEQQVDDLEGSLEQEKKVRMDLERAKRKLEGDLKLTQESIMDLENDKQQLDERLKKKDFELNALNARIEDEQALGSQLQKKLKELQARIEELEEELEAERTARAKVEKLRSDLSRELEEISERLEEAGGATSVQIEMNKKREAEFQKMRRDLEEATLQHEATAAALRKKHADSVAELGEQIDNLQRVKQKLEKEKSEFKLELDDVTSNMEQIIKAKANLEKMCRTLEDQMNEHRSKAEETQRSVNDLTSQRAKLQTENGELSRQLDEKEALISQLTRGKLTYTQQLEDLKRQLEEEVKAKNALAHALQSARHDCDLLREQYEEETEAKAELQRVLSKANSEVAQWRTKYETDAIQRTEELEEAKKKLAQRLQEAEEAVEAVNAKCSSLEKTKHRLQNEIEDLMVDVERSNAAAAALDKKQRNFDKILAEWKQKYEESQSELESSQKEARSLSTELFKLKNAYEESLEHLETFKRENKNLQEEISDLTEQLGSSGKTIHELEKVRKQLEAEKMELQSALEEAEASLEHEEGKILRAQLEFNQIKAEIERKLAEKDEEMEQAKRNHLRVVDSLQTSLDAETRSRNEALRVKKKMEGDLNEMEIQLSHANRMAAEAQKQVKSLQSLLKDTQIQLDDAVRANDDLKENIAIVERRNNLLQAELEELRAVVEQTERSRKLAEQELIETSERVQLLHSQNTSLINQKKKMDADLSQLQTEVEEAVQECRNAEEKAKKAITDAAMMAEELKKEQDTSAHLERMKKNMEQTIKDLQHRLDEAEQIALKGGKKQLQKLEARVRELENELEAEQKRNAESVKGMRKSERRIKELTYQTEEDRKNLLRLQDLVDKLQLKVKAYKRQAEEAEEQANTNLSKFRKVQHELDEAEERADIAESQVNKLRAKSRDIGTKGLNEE
Chain of cardiac actin and myosin (P08590 whole entry partner): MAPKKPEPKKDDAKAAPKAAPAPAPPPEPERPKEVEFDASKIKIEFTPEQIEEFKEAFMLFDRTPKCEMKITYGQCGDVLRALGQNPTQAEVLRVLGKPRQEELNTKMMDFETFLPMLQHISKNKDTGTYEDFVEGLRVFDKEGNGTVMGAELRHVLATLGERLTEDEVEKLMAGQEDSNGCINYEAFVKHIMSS

Cn1cc(S(=O)(=O)[C@@](C)(F)C2CCN(C(=O)Nc3ccon3)CC2)c(C(F)F)n1 [Compound I, (R)-4-(1-((3-(difluoromethyl)-1-methyl-1H-pyrazol-4-yl)sulfonyl)-1-fluoroethyl)-N-(isoxazol-3-yl)piperidine-1-carboxamide]
troponin-I (healthy volunteers; 200 mg, fasted or fed state): No increase | abnormal ECG results (healthy volunteers; 200 mg, fasted state): 3 (30.0%) | headache (healthy volunteers; 200 mg, fasted state): 4 subjects | abnormal ECG results (healthy volunteers; 200 mg, fed state): 2 (20.0%) | headache (healthy volunteers; 200 mg, fed state): 1 subject | tolerability (healthy volunteers; single dose of 200 mg): well-tolerated | Biopharmaceutics Classification System (BCS) class [1]: Class II | solubility ([1]; aqueous buffer, 37° C., across pH 1.2-9.6): ~43 µg/mL (≈ 98.8 µM) | blood plasma ratio ([1]; Dog, in vitro measured, read-out: B:P (Dog), ratio of concentration of drug in blood to plasma): 0.8 | blood plasma ratio ([1]; Human, in vitro measured, read-out: B:P (Human), ratio of concentration of drug in blood to plasma): 0.85 | hygroscopicity [1, 3]: nonhygroscopic | solubility in aqueous media [1, 3]: practically insoluble | Papp ([1]; human, Caco-2, in vitro measured, read-out: Permeability, Caco-2): 17.9 ×10⁻⁶ cm/s | logD ([1]; pH 7.4, Measured): 3.07 | crossbridge detachment (measured as ADP release) (cardiac actin and myosin): does not inhibit crossbridge detachment | crossbridge formation (measured as phosphate release) (cardiac actin and myosin; between cardiac actin and myosin): increases crossbridge formation | LVEF ([2]; MAD cohorts): non-significant increase | A-wave duration, mean change from baseline (placebo-corrected) [2, 4]: 5.9 ms | A-wave peak, mean change from baseline (placebo-corrected) [2, 4]: 6.1** cm/s | DBP (supine), mean change from baseline (placebo-corrected) [2, 4]: −0.2 mmHg | E-wave peak, mean change from baseline (placebo-corrected) [2, 4]: -2.1 cm/s | E/A ratio, mean change from baseline (placebo-corrected) [2, 4]: −0.1** | E/e′ (lateral), mean change from baseline (placebo-corrected) [2, 4]: −0.7 | Heart rate (supine), mean change from baseline (placebo-corrected) [2, 4]: −2.0 bpm | IVRT, mean change from baseline (placebo-corrected) [2, 4]: 10.5 ms | LVEDD, mean change from baseline (placebo-corrected) [2, 4]: −0.9** mm | LVEDVi, mean change from baseline (placebo-corrected) [2, 4]: −1.1 mL/m^2 | LVEF, mean change from baseline (placebo-corrected) [2, 4]: 1.1% | LVESD, mean change from baseline (placebo-corrected) [2, 4]: −1.3** mm | LVESVi, mean change from baseline (placebo-corrected) [2, 4]: −1.3 mL/m^2 | LVFS, mean change from baseline (placebo-corrected) [2, 4]: 0.8% | LVGCS, mean change from baseline (placebo-corrected) [2, 4]: −2.1** % | LVGLS, mean change from baseline (placebo-corrected) [2, 4]: −0.9* % | LVSV, mean change from baseline (placebo-corrected) [2, 4]: 7.8** mL | SBP (supine), mean change from baseline (placebo-corrected) [2, 4]: −0.8 mmHg | SET, mean change from baseline (placebo-corrected) [2, 4]: 36** ms | Tei index, mean change from baseline (placebo-corrected) [2, 4]: −0.08** | e′ (lateral), mean change from baseline (placebo-corrected) [2, 4]: 0.1 | s′ (lateral), mean change from baseline (placebo-corrected) [2, 4]: 0.6** | A-wave duration, mean change from baseline (placebo-corrected) [2, 5]: 6.0 ms | A-wave peak, mean change from baseline (placebo-corrected) [2, 5]: 4.1* cm/s | DBP (supine), mean change from baseline (placebo-corrected) [2, 5]: −0.9 mmHg | E-wave peak, mean change from baseline (placebo-corrected) [2, 5]: -3.8 cm/s | E/A ratio, mean change from baseline (placebo-corrected) [2, 5]: −0.1** | E/e′ (lateral), mean change from baseline (placebo-corrected) [2, 5]: −0.8 | Heart rate (supine), mean change from baseline (placebo-corrected) [2, 5]: 0.0 bpm | IVRT, mean change from baseline (placebo-corrected) [2, 5]: 2.7 ms | LVEDD, mean change from baseline (placebo-corrected) [2, 5]: −0.5 mm | LVEDVi, mean change from baseline (placebo-corrected) [2, 5]: −1.1 mL/m^2 | LVEF, mean change from baseline (placebo-corrected) [2, 5]: −0.3% | LVESD, mean change from baseline (placebo-corrected) [2, 5]: −0.8 mm | LVESVi, mean change from baseline (placebo-corrected) [2, 5]: −0.9 mL/m^2 | LVFS, mean change from baseline (placebo-corrected) [2, 5]: 0.5% | LVGCS, mean change from baseline (placebo-corrected) [2, 5]: −0.4% | LVGLS, mean change from baseline (placebo-corrected) [2, 5]: −0.3% | LVSV, mean change from baseline (placebo-corrected) [2, 5]: 3.1 mL | SBP (supine), mean change from baseline (placebo-corrected) [2, 5]: −1.5 mmHg | SET, mean change from baseline (placebo-corrected) [2, 5]: 15** ms | Tei index, mean change from baseline (placebo-corrected) [2, 5]: −0.05 | e′ (lateral), mean change from baseline (placebo-corrected) [2, 5]: −0.2 | s′ (lateral), mean change from baseline (placebo-corrected) [2, 5]: 0.2 | A-wave duration, mean change from baseline (placebo-corrected) [2, 6]: 11.9** msec | A-wave peak, mean change from baseline (placebo-corrected) [2, 6]: 4.3 cm/s | DBP (supine), mean change from baseline (placebo-corrected) [2, 6]: −1.4 mmHg | E-wave peak, mean change from baseline (placebo-corrected) [2, 6]: −10** cm/s | E/A ratio, mean change from baseline (placebo-corrected) [2, 6]: −0.2** | E/e′ (lateral), mean change from baseline (placebo-corrected) [2, 6]: 0.3 | Heart rate (supine), mean change from baseline (placebo-corrected) [2, 6]: −1.1 bpm | IVRT, mean change from baseline (placebo-corrected) [2, 6]: 27.8** msec | LVEDD, mean change from baseline (placebo-corrected) [2, 6]: −1.8** mm | LVEDVi, mean change from baseline (placebo-corrected) [2, 6]: −5.2* mL/m^2 | LVEF, mean change from baseline (placebo-corrected) [2, 6]: 2.3% | LVESD, mean change from baseline (placebo-corrected) [2, 6]: −1.8** mm | LVESVi, mean change from baseline (placebo-corrected) [2, 6]: −4.6** mL/m^2 | LVFS, mean change from baseline (placebo-corrected) [2, 6]: 0.5% | LVGCS, mean change from baseline (placebo-corrected) [2, 6]: −3.3** % | LVGLS, mean change from baseline (placebo-corrected) [2, 6]: −1.0* % | LVSV, mean change from baseline (placebo-corrected) [2, 6]: 5.7* mL | SBP (supine), mean change from baseline (placebo-corrected) [2, 6]: −5.2* mmHg | SET, mean change from baseline (placebo-corrected) [2, 6]: 48** ms | Tei index, mean change from baseline (placebo-corrected) [2, 6]: −0.02 | e′ (lateral), mean change from baseline (placebo-corrected) [2, 6]: −1.0** | s′ (lateral), mean change from baseline (placebo-corrected) [2, 6]: 0.3 | SET increase ([2]; SAD and MAD cohorts): < 50 ms | increase in SV (forward flow) ([2]; SAD and MAD cohorts, exposure-related): 8 to 9 mL | Myocardial performance (Tei index) improved ([2]; SAD and MAD cohorts, concentrations ≥2000 ng/mL): approximately 10% | LV longitudinal as well as circumferential strain, mean placebo-corrected decrease [2, 7]: −3.3% | LVESD, mean placebo-corrected decrease [2, 7]: −1.8 mm | SET, mean placebo-corrected increase [2, 7]: 48 ms | peak E wave, decrease [2, 7]: -10 cm/s | stroke volume, mean placebo-corrected increase [2, 7]: 5.7 mL | LV longitudinal as well as circumferential strain, mean placebo-corrected decrease [2, 8]: −2.1% | LVESD, mean placebo-corrected decrease [2, 8]: −1.3 mm | SET, mean placebo-corrected increase [2, 8]: 36 ms | stroke volume, mean placebo-corrected increase [2, 8]: 7.8 mL | filling pressures (E/e′) ([2]; medium or higher concentration group): No change
